Results taken from US10689378B2, “Triazolopyridine compounds and uses thereof” (Novartis AG, priority 2016, dated 2020).
pIC50: −log10 of the molar value. Like-named read-outs stand apart in the source and are kept apart here.

Legend:
[1] = target: T1, EED (1-441)-His protein (Homo sapiens, UniProt O75530); test: EED-H3K27Me3 peptide competition binding assay by AlphaScreen
T1 construct: 30 nM EED (1-441)-His protein
Method in brief: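 Serially diluted compound (12 points, 3-fold) incubated 20 min with 30 nM EED(1-441)-His and 15 nM biotin-H3K27Me3(19-33) peptide in 25 mM HEPES pH 8, 0.02% Tween-20, 0.5% BSA. Ni-chelate acceptor/streptavidin donor beads (10 μg/mL each) added, 1 h rt dark; 615 nm emission normalized to controls, dose-response fit for IC50.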

[2] = target: wild type PRC2 (wtPRC2) complex (Homo sapiens, UniProt O75530); test: EED LC-MS assay (SAH production by PRC2); format: biochemical
Sequence of wild type PRC2 (wtPRC2) complex (O75530 whole entry): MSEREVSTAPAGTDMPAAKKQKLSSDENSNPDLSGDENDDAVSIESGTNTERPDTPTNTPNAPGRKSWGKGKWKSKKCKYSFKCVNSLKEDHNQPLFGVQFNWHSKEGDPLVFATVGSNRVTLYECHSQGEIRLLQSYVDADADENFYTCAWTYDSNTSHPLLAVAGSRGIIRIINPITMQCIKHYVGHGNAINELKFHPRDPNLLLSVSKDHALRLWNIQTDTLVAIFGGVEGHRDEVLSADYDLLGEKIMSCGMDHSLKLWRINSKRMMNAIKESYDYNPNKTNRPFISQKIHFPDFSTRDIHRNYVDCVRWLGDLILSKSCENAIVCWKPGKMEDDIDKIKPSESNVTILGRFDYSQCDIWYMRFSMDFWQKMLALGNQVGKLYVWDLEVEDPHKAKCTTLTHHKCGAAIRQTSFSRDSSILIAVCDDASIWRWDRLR
Sequence of wild type PRC2 (wtPRC2) complex (Q15910 whole entry partner): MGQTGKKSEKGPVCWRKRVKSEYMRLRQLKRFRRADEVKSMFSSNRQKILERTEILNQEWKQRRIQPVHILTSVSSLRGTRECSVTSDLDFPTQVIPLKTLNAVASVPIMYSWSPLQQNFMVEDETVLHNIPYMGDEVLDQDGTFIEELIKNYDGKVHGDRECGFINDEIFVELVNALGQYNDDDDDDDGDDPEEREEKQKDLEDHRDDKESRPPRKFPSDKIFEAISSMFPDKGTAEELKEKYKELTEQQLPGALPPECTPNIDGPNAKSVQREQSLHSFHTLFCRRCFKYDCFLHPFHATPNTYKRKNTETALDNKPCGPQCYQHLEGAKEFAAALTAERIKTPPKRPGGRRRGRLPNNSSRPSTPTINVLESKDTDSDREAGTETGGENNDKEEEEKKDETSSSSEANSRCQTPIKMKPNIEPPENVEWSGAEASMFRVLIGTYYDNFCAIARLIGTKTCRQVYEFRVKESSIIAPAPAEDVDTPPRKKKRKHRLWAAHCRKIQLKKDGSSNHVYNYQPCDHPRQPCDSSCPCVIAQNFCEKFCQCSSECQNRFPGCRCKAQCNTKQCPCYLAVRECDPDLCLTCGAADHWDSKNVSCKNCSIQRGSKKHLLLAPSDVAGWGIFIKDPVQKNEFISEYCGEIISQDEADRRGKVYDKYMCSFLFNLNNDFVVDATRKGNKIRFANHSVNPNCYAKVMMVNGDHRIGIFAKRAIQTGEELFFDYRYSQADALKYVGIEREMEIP
Sequence of wild type PRC2 (wtPRC2) complex (Q15022 whole entry partner): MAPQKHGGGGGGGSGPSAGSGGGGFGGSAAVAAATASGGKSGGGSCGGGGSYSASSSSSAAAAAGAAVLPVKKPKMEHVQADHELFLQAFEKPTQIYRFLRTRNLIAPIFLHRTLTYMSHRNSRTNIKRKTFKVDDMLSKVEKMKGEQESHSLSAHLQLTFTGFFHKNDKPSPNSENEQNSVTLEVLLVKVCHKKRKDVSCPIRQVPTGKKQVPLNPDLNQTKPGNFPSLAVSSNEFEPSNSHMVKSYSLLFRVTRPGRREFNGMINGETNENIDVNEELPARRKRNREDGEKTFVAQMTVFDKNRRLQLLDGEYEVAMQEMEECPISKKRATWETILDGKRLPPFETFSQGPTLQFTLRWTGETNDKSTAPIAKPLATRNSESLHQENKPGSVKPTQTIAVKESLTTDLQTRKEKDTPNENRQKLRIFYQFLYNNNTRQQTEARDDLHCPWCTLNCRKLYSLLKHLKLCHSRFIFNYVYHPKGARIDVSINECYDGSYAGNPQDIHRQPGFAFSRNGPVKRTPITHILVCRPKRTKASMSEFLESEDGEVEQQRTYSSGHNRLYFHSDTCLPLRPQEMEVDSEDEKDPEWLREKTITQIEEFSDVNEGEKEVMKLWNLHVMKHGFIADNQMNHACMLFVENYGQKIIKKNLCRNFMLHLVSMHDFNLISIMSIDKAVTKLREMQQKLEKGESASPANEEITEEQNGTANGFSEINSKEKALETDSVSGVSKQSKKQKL
Sequence of wild type PRC2 (wtPRC2) complex (Q09028 whole entry partner): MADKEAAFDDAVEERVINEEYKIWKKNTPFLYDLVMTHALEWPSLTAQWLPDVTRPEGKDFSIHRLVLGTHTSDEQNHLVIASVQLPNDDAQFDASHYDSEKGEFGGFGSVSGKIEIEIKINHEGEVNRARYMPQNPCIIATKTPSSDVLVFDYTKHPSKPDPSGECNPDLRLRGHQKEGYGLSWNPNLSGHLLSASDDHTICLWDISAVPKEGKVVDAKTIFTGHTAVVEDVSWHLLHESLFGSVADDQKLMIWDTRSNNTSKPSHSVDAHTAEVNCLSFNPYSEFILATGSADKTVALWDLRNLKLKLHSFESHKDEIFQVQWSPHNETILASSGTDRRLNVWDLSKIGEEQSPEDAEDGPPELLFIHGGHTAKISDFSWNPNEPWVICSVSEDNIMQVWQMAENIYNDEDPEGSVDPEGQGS
Sequence of wild type PRC2 (wtPRC2) complex (Q6ZN18 whole entry partner): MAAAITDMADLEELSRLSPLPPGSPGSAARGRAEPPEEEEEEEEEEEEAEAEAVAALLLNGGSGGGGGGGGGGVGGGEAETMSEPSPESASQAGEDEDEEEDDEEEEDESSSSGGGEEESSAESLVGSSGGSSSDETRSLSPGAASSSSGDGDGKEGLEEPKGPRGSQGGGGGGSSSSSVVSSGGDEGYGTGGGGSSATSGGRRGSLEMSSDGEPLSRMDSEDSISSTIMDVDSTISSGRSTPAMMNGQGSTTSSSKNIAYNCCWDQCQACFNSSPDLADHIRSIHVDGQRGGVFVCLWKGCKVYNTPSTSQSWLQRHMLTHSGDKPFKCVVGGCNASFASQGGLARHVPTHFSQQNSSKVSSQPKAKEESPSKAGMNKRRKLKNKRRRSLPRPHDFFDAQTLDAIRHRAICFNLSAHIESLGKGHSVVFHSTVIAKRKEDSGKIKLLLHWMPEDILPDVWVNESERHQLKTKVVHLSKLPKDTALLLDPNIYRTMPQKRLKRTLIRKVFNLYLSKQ
Experimental: Compounds of the present invention were assessed for their ability to inhibit PRC2 activity in a pentameric complex of EZH2, SUZ12, EED, Rbap48 and AEBP in biochemical assays. The ability of compounds of the present invention to inhibit cellular activity of PRC2 was assessed by analysing histone H3 lysine 27 methylation in human cell lines. The ability of compounds of the present invention to inhibit cancers was derived from their ability to modulate activity in human cancer cell lines bearing specific dependence to PRC2 activity to maintain cancerous growth.
Representative compounds of the present invention were serially and separately diluted 3-fold in DMSO to obtain a total of eight or twelve concentrations. Then the test compounds at each concentration (120 nL of each) were transferred by Mosquito into a 384-well Perkin Elmer ProxiPlate 384 plus plates. Solutions (6 μL) of 24 nM the wild type PRC2 (wtPRC2) complex and 2 μM SAM in reaction buffer (20 mM Tris, pH 8.0, 0.1% BSA, 0.01% Triton, 0.5 mM DTT) were added to the wells that were then incubated with the test compound for 20 min. A 6 μL solution of 3 μM of the peptide substrate H3K27Me0 (histone H3[21-44]-biotin) in reaction buffer was added to initiate each reaction. The final components in the reaction solution include 12 nM wtPRC2 complex, 1 μM SAM, and 1.5 μM H3K27me0 peptide with varying concentration of the compounds. A positive control consisted of the enzyme, 1 μM SAM and 1.5 μM substrate in the absence of the test compound, and a negative control consisted of 1 μM SAM and 1.5 μM substrate only. Each reaction was incubated at rt for 120 min, then stopped by addition of 3 μL per of quench solution (2.5% TFA with 320 nM d4-SAH). The reaction mixture was centrifuged (Eppendorf centrifuge 5810, Rotor A-4-62) for 2 min at 2000 rpm and read on an API 4000 triple quadrupole mass spec with Turbulon Spray (Applied Biosystem) coupled with Prominence UFLC (Shimadzu). The levels of SAH production were then normalized based on the values coming from the positive and negative controls to give percent enzyme activities. The data were then fit to a dose response equation using the program Helios to get the IC50 values of the test compound.

[3] = tested on: H3K27 methylation in G401 cell; test: ELISA (H3K27 methylation) assay in G401 cells; format: cell-based, human; conditions: Homo sapiens
Method in brief: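 IC50 from dose-response fit of percent inhibition relative to DMSO, using H3K27me3/me2 ELISA signal (ECL) normalized to histone H3. Histones HCl-extracted after 48 h compound exposure of G401 cells at up to 20 μM, 8- or 12-point 3-fold series.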

[4] = EED-H3K27Me3 peptide competition, AlphaScreen, read-out: (a) IC50 EED Alphascreen binding Qualified
[5] = PRC2 LC-MS assay, read-out: (b) IC50 EED LC-MS Qualified
[6] = G-401, H3K27 methylation ELISA, read-out: (c) IC50 ELISA Qualified
[7] = read-out: (a) IC50, EED Alphascreen binding Qualified
[8] = read-out: (b) IC50, EED LC-MS Qualified
[9] = G-401, read-out: (c) IC50, ELISA Qualified

T1 sequence (O75530 whole entry): as the sequence (O75530 whole entry) above

SMILES	pIC50 [1, 4]	pIC50 [2, 5]	pIC50 [3, 6]	pIC50 [1, 7]	pIC50 [2, 8]	pIC50 [3, 9]	also measured
COc1cccc(F)c1CNc1ccc(-c2c(C)ccnc2F)c2nncn12 [Example 218, 8-(2-fluoro-4-methylpyridin-3-yl)-N-(2-fluoro-6-methoxybenzyl)-[1,2,4]triazolo[4,3-a] pyridin-5-amine]	7.42	7.10	7.38	–	–	–	–
CCOc1ncc(-c2ccc(NCc3c(F)cc(F)cc3OC)n3cnnc23)c(C)n1 [Example 343, N-(2,4-difluoro-6-methoxybenzyl)-8-(2-ethoxy-4-methylpyrimidin-5-yl)-[1,2,4]triazolo[4,3-a]pyridin-5-amine]	7.59	6.31	7.44	–	–	–	–
COc1cccc(F)c1CNc1ccc(-c2ccnc(C)c2C)c2nncn12 [Example 287, 8-(2,3-dimethylpyridin-4-yl)-N-(2-fluoro-6-methoxybenzyl)-[1,2,4]triazolo[4,3-a] pyridin-5-amine]	8.00	7.41	8.18	–	–	–	–
COc1cccc(F)c1CNc1ccc(-c2cnc(Cl)cc2C)c2nncn12 [Example 267, 8-(6-chloro-4-methylpyridin-3-yl)-N-(2-fluoro-6-methoxybenzyl)-[1,2,4]triazolo[4,3-a] pyridin-5-amine]	7.77	7.12	7.84	–	–	–	–
COc1cccc(F)c1CNc1ccc(-c2ccc(N(C)S(C)(=O)=O)nc2)c2nncn12 [Example 163, N-(5-(5-((2-fluoro-6-methoxybenzyl)amino)-[1,2,4]triazolo[4,3-a]pyridin-8-yl)pyridin-2-yl)-N-methylmethanesulfonamide]	–	–	–	7.78	7.30	7.97	–
COc1cccc(F)c1CNc1ccc(-c2cccnc2CC#N)c2nncn12 [Example 341, 2-(3-(5-((2-fluoro-6-methoxybenzyl)amino)-[1,2,4]triazolo[4,3-a]pyridin-8-yl)pyridin-2-yl)acetonitrile]	7.67	7.02	7.66	–	–	–	–
COc1cccc(F)c1CNc1ccc(-c2c(C)nn(C3CC3)c2C)c2nncn12 [Example 275, 8-(1-cyclopropyl-3,5-dimethyl-1H-pyrazol-4-yl)-N-(2-fluoro-6-methoxybenzyl)-[1,2,4]triazolo[4,3-a] pyridin-5-amine]	7.63	7.14	7.67	–	–	–	–
COc1cccc(F)c1CNc1ccc(-c2cncc(C3=NC(C)(C)CO3)c2)c2nncn12 [Example 199, 8-(5-(4,4-dimethyl-4,5-dihydrooxazol-2-yl)pyridin-3-yl)-N-(2-fluoro-6-methoxybenzyl)-[1,2,4]triazolo[4,3-a] pyridin-5-amine]	7.63	6.48	7.50	–	–	–	–
COc1cc(C)c(-c2ccc(NCc3c(F)cccc3OC)n3cnnc23)cn1 [Example 308, N-(2-fluoro-6-methoxybenzyl)-8-(6-methoxy-4-methylpyridin-3-yl)-[1,2,4] triazolo[4,3-a]pyridin-5-amine]	7.73	6.93	7.76	–	–	–	–
COc1cccc(F)c1CNc1ccc(-n2cccn2)c2nncn12 [Example 357, N-(2-fluoro-6-methoxybenzyl)-8-(1H-pyrazol-1-yl)-[1,2,4]triazolo[4,3-a]pyridin-5-amine]	–	–	–	–	–	–	pIC50 ([1]; read-out: (a) IC50 EED Alphascreen binding Qualified): 7.59; pIC50 ([2]; read-out: (b) IC50 EED LC-MS Qualified): 6.84; pIC50 ([3]; G-401, read-out: (c) IC50 ELISA Qualified): 7.41
COc1cc(F)cc(F)c1CNc1ccc(-c2cnc(S(C)(=O)=O)cc2C)c2nncn12 [Example 240, N-(2,4-difluoro-6-methoxybenzyl)-8-(4-methyl-6-(methylsulfonyl)pyridin-3-yl)-[1,2,4]triazolo[4,3-a] pyridin-5-amine]	7.28	7.27	7.53	–	–	–	–

Second part, led by results:

pIC50 [1, 4]	pIC50 [2, 5]	pIC50 [3, 6]	pIC50 [1, 7]	pIC50 [2, 8]	pIC50 [3, 9]	SMILES	also measured
–	–	–	7.75	7.63	8.12	COc1cccc(F)c1CNc1ccc(-c2ccc(CN(C)C)cc2)c2nncn12 [Example 45, 8-(4-((dimethylamino)methyl)phenyl)-N-(2-fluoro-6-methoxybenzyl)-[1,2,4] triazolo[4,3-a]pyridin-5-amine]	–
7.10	7.01	7.36	–	–	–	COc1cc(F)cc(F)c1CNc1ccc(-c2ccncc2)c2nncn12 [Example 228, N-(2,4-difluoro-6-methoxybenzyl)-8-(pyridin-4-yl)-[1,2,4]triazolo[4,3-a]pyridin-5-amine]	–
–	–	–	7.72	6.64	7.25	COc1ccccc1CNc1ccc(-c2ccc(CN3CC(F)(F)C3)cc2)c2nncn12 [Example 54, 8-(4-((3,3-difluoroazetidin-1-yl)methyl)phenyl)-N-(2-methoxybenzyl)-[1,2,4] triazolo[4,3-a]pyridin-5-amine]	–
7.46	7.24	7.21	–	–	–	CCc1ccncc1-c1ccc(NCc2c(F)cccc2OC)n2cnnc12 [Example 272, 8-(4-ethylpyridin-3-yl)-N-(2-fluoro-6-methoxybenzyl)-[1,2,4]triazolo[4,3-a]pyridin-5-amine]	–
–	–	–	7.31	6.99	7.39	COc1cccc(F)c1CNc1ccc(-c2ccc(F)nc2)c2nncn12 [Example 159, N-(2-fluoro-6-methoxybenzyl)-8-(6-fluoropyridin-3-yl)-[1,2,4]triazolo[4,3-a] pyridin-5-amine]	–
7.37	6.78	7.21	–	–	–	COc1cccc(F)c1CNc1ccc(-c2cnn(C3CC3)c2)c2nncn12 [Example 210, 8-(1-cyclopropyl-1H-pyrazol-4-yl)-N-(2-fluoro-6-methoxybenzyl)-[1,2,4] triazolo[4,3-a]pyridin-5-amine]	–
7.54	6.71	7.94	–	–	–	COc1cccc(F)c1CNc1ccc(-c2ccnn2C2CC2)c2nncn12 [Example 292, 8-(1-cyclopropyl-1H-pyrazol-5-yl)-N-(2-fluoro-6-methoxybenzyl)-[1,2,4] triazolo[4,3-a]pyridin-5-amine]	–
–	–	–	7.48	6.89	7.05	CCS(=O)(=O)c1ccc(-c2ccc(NCc3ccccc3OC)n3cnnc23)cc1 [Example 56, 8-(4-(ethylsulfonyl)phenyl)-N-(2-methoxybenzyl)-[1,2,4]triazolo[4,3-a]pyridin-5-amine]	–
–	–	–	7.13	5.96	6.95	COc1ccccc1CNc1ccc(-c2cc(F)c(CN3CCCCC3)c(F)c2)c2nncn12 [Example 44, 8-(3,5-difluoro-4-(piperidin-1-ylmethyl)phenyl)-N-(2-methoxybenzyl)-[1,2,4] triazolo[4,3-a]pyridin-5-amine]	–
–	–	–	7.43	6.56	7.22	COc1ccccc1CNc1ccc(-c2ccnc(C)c2)c2nncn12 [Example 91, N-(2-methoxybenzyl)-8-(2-methylpyridin-4-yl)-[1,2,4] triazolo[4,3-a]pyridin-5-amine]	–
–	–	–	7.39	6.82	7.37	COc1cccc(F)c1CNc1ccc(-c2ccc(OCCO)cc2)c2nncn12 [Example 157, 2-(4-(5-((2-fluoro-6-methoxybenzyl)amino)-[1,2,4]triazolo[4,3-a]pyridin-8-yl)phenoxy)ethanol]	–
–	–	–	7.55	6.84	7.44	COc1ccccc1CNc1ccc(-c2ccc(S(=O)(=O)C3CCNCC3)cc2)c2nncn12 [Example 53, N-(2-methoxybenzyl)-8-(4-(piperidin-4-ylsulfonyl)phenyl)-[1,2,4]triazolo[4,3-a] pyridin-5-amine]	–
–	–	–	7.47	6.82	7.30	COc1ccccc1CNc1ccc(-c2ccc(S(C)(=O)=O)cc2)c2nncn12 [Example 25, N-(2-methoxybenzyl)-8-(4-(methylsulfonyl)phenyl)-[1,2,4]triazolo[4,3-a]pyridin-5-amine]	–
